Reference: ChEMBL document CHEMBL3856233, “Identification of (R)-(2-Chloro-3-(trifluoromethyl)phenyl)(1-(5-fluoropyridin-2-yl)-4-methyl-6,7-dihydro-1H-imidazo[4,5-c]pyridin-5(4H)-yl)methanone (JNJ 54166060), a Small Molecule Antagonist of the P2X7 receptor” (J Med Chem, 2016)

How the values were obtained:
[1] = Tmax in Sprague-Dawley rat at 5 mg/kg, po after 0.033 to 24 hrs by LC/MS/MS analysis; assay type: ADME, organism-based; details: in vivo
Rattus norvegicus [2] = experiment: Toxicity in rat assessed as CNS side effects up to 250 mg/kg, po for 4 days followed by necropsy on day 5 post treatment; assay type: organism-based; details: in vivo, 96 h
[3] = Oral bioavailability in cynomolgus monkey at 5 mg/kg after 0.033 to 24 hrs by LC/MS/MS analysis; assay type: ADME, organism-based, Macaca fascicularis; details: in vivo
Rattus norvegicus [4] = experiment: Toxicity in rat assessed as induction of central lobular hepatocellular necrosis at 250 mg/kg/day, po administered for 4 days followed by necropsy on day 5 post treatment by histological analysis; assay type: organism-based; details: in vivo, 96 h
Rattus norvegicus [5] = experiment: Toxicity in rat assessed as CNS side effects up to 1000 mg/kg, po administered on day 1 followed by necropsy on day 2; assay type: organism-based; details: in vivo
[6] = Clearance in Beagle dog at 1 mg/kg, iv after 0.033 to 24 hrs by LC/MS/MS analysis; assay type: ADME, organism-based, Canis lupus familiaris; details: in vivo
CYP3A4 = CYP3A4 (Homo sapiens, UniProt P08684); experiment: Inhibition of CYP3A4 in human liver microsomes using midazolam as substrate assessed as reduction in 1-OH-midazolam formation at 0.313 uM by LC/MS/MS analysis; assay type: ADME; details: probe midazolam
CYP3A4, sequence (P08684 whole entry): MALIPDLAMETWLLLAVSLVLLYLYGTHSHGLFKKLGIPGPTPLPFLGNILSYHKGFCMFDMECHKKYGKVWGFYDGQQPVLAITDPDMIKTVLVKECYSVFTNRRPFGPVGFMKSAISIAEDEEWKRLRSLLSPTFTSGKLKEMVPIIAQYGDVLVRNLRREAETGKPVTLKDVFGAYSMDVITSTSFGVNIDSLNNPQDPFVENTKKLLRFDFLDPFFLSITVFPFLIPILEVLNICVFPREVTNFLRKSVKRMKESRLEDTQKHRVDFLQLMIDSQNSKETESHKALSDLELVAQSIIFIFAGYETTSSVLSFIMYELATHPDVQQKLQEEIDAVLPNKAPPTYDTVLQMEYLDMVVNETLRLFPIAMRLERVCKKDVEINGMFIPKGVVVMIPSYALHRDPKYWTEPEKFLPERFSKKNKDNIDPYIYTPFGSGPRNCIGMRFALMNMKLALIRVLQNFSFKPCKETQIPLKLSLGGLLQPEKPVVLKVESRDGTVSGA

[7] = Half life in cynomolgus monkey at 1 mg/kg, iv by LC/MS/MS analysis; assay type: ADME, organism-based, Macaca fascicularis; details: in vivo
[8] = Half life in Sprague-Dawley rat at 1 mg/kg, iv by LC/MS/MS analysis; assay type: ADME, organism-based; details: in vivo
[9] = Cmax in Beagle dog at 5 mg/kg, po after 0.033 to 24 hrs by LC/MS/MS analysis; assay type: ADME, organism-based, Canis lupus familiaris; set-up: dose 5 mg/kg, route oral; details: in vivo
[10] = Permeability from apical to basolateral side in human Caco2 cells at 10 uM after 60 mins by LC/MS/MS analysis; assay type: ADME, cell-based; details: Caco-2, read-out: permeability
P2X purinoceptor 7 = target: T1, P2X purinoceptor 7 (Mus musculus, UniProt Q9Z1M0); experiment: Antagonist activity at P2X7 receptor in LPS-stimulated mouse whole blood assessed as inhibition of Bz-ATP-induced IL-1beta release incubated for 30 mins after LPS stimulation for 1 hr followed by agonist addition measured after […] by ELISA; assay type: tissue-based
T1 sequence (Q9Z1M0 whole entry): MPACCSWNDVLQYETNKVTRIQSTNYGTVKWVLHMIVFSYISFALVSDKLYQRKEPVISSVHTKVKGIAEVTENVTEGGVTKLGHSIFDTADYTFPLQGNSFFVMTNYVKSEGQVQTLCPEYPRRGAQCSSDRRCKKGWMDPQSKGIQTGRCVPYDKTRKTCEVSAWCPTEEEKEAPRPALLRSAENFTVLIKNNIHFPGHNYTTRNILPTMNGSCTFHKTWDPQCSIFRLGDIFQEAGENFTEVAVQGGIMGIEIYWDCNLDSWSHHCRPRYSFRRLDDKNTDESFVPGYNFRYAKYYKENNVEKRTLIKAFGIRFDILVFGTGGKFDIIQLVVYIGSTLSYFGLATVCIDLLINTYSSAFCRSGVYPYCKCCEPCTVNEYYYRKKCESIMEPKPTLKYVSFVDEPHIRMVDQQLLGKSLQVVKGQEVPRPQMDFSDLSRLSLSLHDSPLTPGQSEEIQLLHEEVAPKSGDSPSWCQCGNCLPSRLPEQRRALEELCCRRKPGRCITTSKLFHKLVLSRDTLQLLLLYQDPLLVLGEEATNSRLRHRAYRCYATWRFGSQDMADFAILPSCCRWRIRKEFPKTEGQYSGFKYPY

Rattus norvegicus [11] = experiment: Ex vivo receptor occupancy at P2X7 receptor in po dosed rat brain hippocampal section assessed as displacement of [3H]-(S)-7-(2-chloro-3-(trifluoromethyl)benzyl)-6-methyl-3-(pyrazin-2-yl)-6,7-dihydro-[1,2,4]triazolo[4,3-a]pyrazin-8(5H)-one after 30 mins; assay type: functional
[12] = Half life in Beagle dog at 1 mg/kg, iv by LC/MS/MS analysis; assay type: ADME, organism-based, Canis lupus familiaris; details: in vivo
[13] = Tmax in Beagle dog at 5 mg/kg, po after 0.033 to 24 hrs by LC/MS/MS analysis; assay type: ADME, organism-based, Canis lupus familiaris; details: in vivo

Tmax [1]: 1 h
bioavailability [3]: 54%
clearance [6]: 5.5 mL/min/kg
inhibition at 0.313 µM (CYP3A4): 20%
half-life [7]: 4.2 h
half-life [8]: 1.7 h
Cmax [9]: 1250 ng/mL
Papp A→B at 1 h, 10 µM [10]: 65 ×10⁻⁶ cm/s
IC50 (P2X purinoceptor 7): 160 nM
inhibition (Rattus norvegicus [11]): Dose-dependent effect
half-life [12]: 11.9 h
Tmax [13]: 0.5 h
SMILES: C[C@@H]1c2ncn(-c3ccc(F)cn3)c2CCN1C(=O)c1cccc(C(F)(F)F)c1Cl
Activity (Rattus norvegicus [2]): Non-Toxic
Activity (Rattus norvegicus [4]): Toxic
Activity (Rattus norvegicus [5]): Non-Toxic
ED50 (Rattus norvegicus [11]): 2.3 mg/kg
